Where two headings read alike, the source gives them in different places.
What was measured:
[1] = test system: bait averse/resistant German cockroach (T-164 strain); assay: Knockdown/mortality of male cockroaches under continuous exposure on treated glazed tile; assay type: in vivo, Blattella germanica; design: Average % Knockdown & Mortality after 5 hr / Average % Knockdown & Mortality after 30 min: concentration or dose not given beside the values; conditions: glazed tile
[2] = test system: Blattella germanica, susceptible strain; assay: Contact efficacy against cockroaches on glazed tiles (acetone solutions); assay type: in vivo; conditions: mean of three replicates; for mortality at 60 mg/m2: imidacloprid 0.1%, 60 mg/m^2, glazed tile; for mortality at 310 mg/m2: imidacloprid 0.5%, 310 mg/m^2, glazed tile; for mortality at 620 mg/m2: imidacloprid 1%, 620 mg/m^2, glazed tile
Protocol: Male Blattella germanica, susceptible strain, were used. A solution of the active ingredient in acetone pipetted onto the corresponding tile on an area of 12.5 cm×12.5 cm.
One day later, a glass ring (diameter 9.5 cm, height 5.5 cm) inner wall treated with talcum was placed on the tile and five male German cockroaches were introduced. Knock down and mortality, respectively, were evaluated after 30′, 1 h, 3 h and 1 d. A water soaked cotton pad was added after 3 hours.
Each trial consisted of three replicates of which the mean values are calculated.

[3] = test system: bait averse/resistant German cockroach (IHOP strain), Blattella germanica; assay: Knockdown/mortality of male cockroaches under continuous exposure on treated glazed tile; assay type: in vivo; conditions: Table 28, aqueous deltamethrin/adjuvant, IHOP strain
Protocol: Treatments were allowed to dry overnight. […] Treatments were replicated a minimum of three times. Evaluations for cockroach knockdown/mortality were made at various intervals for 1 hour and at 24 hours after exposure.
Treatments were allowed to dry overnight. […] Evaluations for cockroach knockdown/mortality were made at various intervals and at 60 minutes after exposure.
Treatments were allowed to dry overnight. […] Treatments were replicated a minimum of three times.

[4] = test system: Culex quinquefasciatus mosquito; assay: USDA Petri Dish Method, 3 min exposure to dipped fiberglass window screen; assay type: in vivo; conditions: Table 29, aqueous deltamethrin/adjuvant
Protocol: MATERIALS AND METHODS: Aqueous solutions of 1% deltamethrin with and without adjuvant were prepared using product sold under the tradename Suspend® SC. […] Pre-cut fiberglass screen (5″×5″, or 161.3 cm^2) were dipped in each treatment solution and excessive solution was allowed to drain completely. Weight of the solution coated on the screen was then determined. The treated screen was then allowed to air-dry overnight. USDA Petri Dish Method was used as initial screening protocol. Twenty, 4-6 day old female Culex quinquefasciatus were exposed to treated window screen for 3 minutes and then moved onto a clean untreated white paper index card. Treatments were replicated a minimum of three times. Mosquito knockdown was evaluated at 3 minute intervals for the first 15 minutes and then at 5 minute intervals for the remainder of an hour. A small cotton ball soaked in sucrose solution was added on the screen top of the petri-dish as a drinking source. Mortality was evaluated at 24 hours after exposure.

[5] = 0.5 h, read-out: Average % knockdown & mortality after 30 min
[6] = 1 h, read-out: Average % knockdown & mortality after 60 min
[7] = 3 h, read-out: Average % knockdown & mortality after 3 hr
[8] = 24 h, read-out: Average % knockdown & mortality after 24 hr

O=[N+]([O-])NC1=NCCN1Cc1ccc(Cl)nc1 [imidacloprid]
Average % Knockdown & Mortality after 45 min ([1]; 45 min, Table 24, imidacloprid/dibutyl sebacate (DBS) in acetone, T-164 strain): 0% | Average % Knockdown & Mortality after 3 hr ([1]; 3 hr, Table 23, imidacloprid/tritylchloride in acetone, T-164 strain): 7% | Average % Knockdown & Mortality after 15 min ([1]; Table 5 (Ex. 2), continuous exposure): 0% | Average % Knockdown & Mortality after 15 min ([1]; Table 6 (Ex. 3), continuous exposure): 0% | Average % Knockdown & Mortality after 15 min ([1]; Table 9 (Ex. 6), continuous exposure): 0% | Average % Knockdown & Mortality after 15 min ([1]; Table 11 (Ex. 8), continuous exposure): 0% | Average % Knockdown & Mortality after 4 hr ([1]; Table 13 (Ex. 10), continuous exposure): 0% | Average % Knockdown & Mortality after 4 hr ([1]; Table 15 (Ex. 12), continuous exposure): 20% | Average % Knockdown & Mortality after 5 hr ([1]; Table 17 (Ex. 14), continuous exposure): 19% | Average % Knockdown & Mortality after 4 hr ([1]; Table 18 (Ex. 15), continuous exposure): 47% | Average % Knockdown & Mortality after 3 hr ([1]; Table 21 (Ex. 18), continuous exposure): 7% | mortality at 60 mg/m2 [2, 5]: 0% | mortality at 310 mg/m2 [2, 5]: 0% | mortality at 620 mg/m2 [2, 5]: 0% | mortality at 60 mg/m2 [2, 6]: 0% | mortality at 310 mg/m2 [2, 6]: 0% | mortality at 620 mg/m2 [2, 6]: 0% | mortality at 60 mg/m2 [2, 7]: 20% | mortality at 310 mg/m2 [2, 7]: 0% | mortality at 620 mg/m2 [2, 7]: 13% | mortality at 60 mg/m2 [2, 8]: 40% | mortality at 310 mg/m2 [2, 8]: 0% | mortality at 620 mg/m2 [2, 8]: 40%

CC1(C)[C@H](C(=O)O[C@H](C#N)c2cccc(Oc3ccccc3)c2)[C@@H]1C=C(Br)Br [deltamethrin (1%)]
Average % Mortality after 10 min ([3]; 10 min): 20% | Average % Mortality after 30 min ([3]; 30 min): 93% | Average % Mortality after 60 min ([3]; 60 min): 100% | Average % Mortality after 24 hr ([3]; 24 hr): 100% | Average % Knockdown & Mortality after 15 min ([4]; 15 min): 0% | Average % Knockdown & Mortality after 30 min ([4]; 30 min): 2% | Average % Knockdown & Mortality after 45 min ([4]; 45 min): 3% | Average % Knockdown & Mortality after 60 min ([4]; 60 min): 8% | Average % Knockdown & Mortality after 4 hr ([4]; 4 hr): 52% | Average % Knockdown & Mortality after 24 hr ([4]; 24 hr): 86%

Reference: patent US9028856B2, “Synergistic pesticide compositions” (priority 2008, dated 2015)
